Experimental data from patent USRE48461E1, “Modulation of androgen receptor expression” (Ionis Pharmaceuticals, Inc., priority 2012, dated 2021).
Oligonucleotides are written 5' to 3', each unit as a sugar letter and its base; * is a phosphorothioate linkage, no mark a phosphodiester; rarer units and linkages stand in square brackets, end groups in braces. Plain capitals give the bases only. e = 2'-O-(2-methoxyethyl) (MOE); k = constrained ethyl (cEt); [5mC] = 5-methylcytosine; d = 2'-deoxy (DNA)

What was measured:
[1] = tested on: AR mRNA; experiment: Antisense inhibition of human AR in HuVEC cells, single concentration (electroporation, qRT-PCR RTS3559); assay type: cell-based; conditions: ~24 h
Outline: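 HuVEC cells electroporated with antisense oligonucleotides at a single concentration. AR mRNA quantified by qRT-PCR using human primer-probe set RTS3559 and normalised to total RNA content by RIBOGREEN.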

[2] = tested on: AR mRNA; experiment: AR mRNA in LnCaP cells by free uptake (hAR_LTS00943); assay type: cell-based, human; conditions: 24 hrs
Method: Cells were plated at a concentration of 4,000 cells/well in 96-well plates. ISIS oligonucleotides, specified in Table 68, were added individually at 0.02 μM, 0.10 μM, 0.50 μM, 2.50 μM, or 10.00 μM. After an incubation period of 24 hrs, mRNA levels were measured using primer probe set hAR_LTS00943.

[3] = tested on: AR mRNA; experiment: Dose-dependent antisense inhibition of human AR in HuVEC cells (electroporation, qRT-PCR RTS3559, IC50); assay type: cell-based; conditions: HuVEC, ~16 h
Outline: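 HuVEC cells dosed with antisense oligonucleotides by electroporation and treated approximately 16 hours. AR mRNA quantified by real-time qPCR with primer probe set RTS3559 and normalised to total RNA by RIBOGREEN; IC50 from dose-response.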

Substance | % inhibition ([1]; 250 nM ASO, Table 7) [%] | Percent inhibition of AR mRNA ([2]; 0.02 μM) [%] | Percent inhibition of AR mRNA ([2]; 0.1 μM) [%] | Percent inhibition of AR mRNA ([2]; 0.5 μM) [%] | Percent inhibition of AR mRNA ([2]; 10 μM) [%] | percent inhibition of AR ([3]; 31.25 nM, Table 8) [%] | percent inhibition of AR ([3]; 62.5 nM, Table 8) [%] | percent inhibition of AR ([3]; 125.0 nM, Table 8) [%] | percent inhibition of AR ([3]; 500.0 nM, Table 8) [%] | percent inhibition of AR ([3]; 1000.0 nM, Table 8) [%] | IC50 ([3]; Table 8) [nM] | other results
569213 (antisense kT*kG*kA*dT*dT*dT*dA*dA*dT*dG*dG*dT*kT*kG*k[5mC]*eA) [compound 569213] | 69 | 3 | 0 | 31 | 78 | 35 | 53 | 65 | 94 | 96 | 60 | 
569216 (antisense eT*kG*kA*kT*dT*dT*dA*dA*dT*dG*dG*dT*kT*kG*k[5mC]*eA) [compound 569216] | 68 | 15 | 17 | 49 | 82 | 38 | 51 | 68 | 91 | 96 | 50 | 
569227 (antisense eT*eG*kA*kT*kT*dT*dA*dA*dT*dG*dG*dT*kT*kG*k[5mC]*eA) [compound 569227] |  | 0 | 0 | 4 | 55 |  |  |  |  |  |  | % inhibition ([1]; 1,000 nM ASO, Table 13): 51%; percent inhibition of AR ([3]; 31.25 nM, Table 14): 13%; percent inhibition of AR ([3]; 62.5 nM, Table 10): 8%; percent inhibition of AR ([3]; 62.5 nM, Table 14): 22%; percent inhibition of AR ([3]; 125.0 nM, Table 10): 40%; percent inhibition of AR ([3]; 125.0 nM, Table 14): 45%; percent inhibition of AR ([3]; 500.0 nM, Table 10): 51%; percent inhibition of AR ([3]; 500.0 nM, Table 14): 61%; percent inhibition of AR ([3]; 1000.0 nM, Table 10): 73%; percent inhibition of AR ([3]; 1000.0 nM, Table 14): 74%; IC50 ([3]; Table 10): 388 nM; IC50 ([3]; Table 14): 255 nM
